Read-outs that look alike come from different tables or passages of the source.
System: VSV
Type: in vivo, mouse

Measured: efficacy index (mean of at least 2 tests)

c1ccc([C@H]2CN3CCSC3=N2)cc1 [levamisole]
toxic: preparation dilution 1:4
0: mouse, in vivo | preparation dilution 1:8 | preparation dilution 1:32 | preparation dilution 1:64 | preparation dilution 1:128
